According to patent US8470805B2, “Processes for preparing piperazinium salts of KMUP and use thereof” (Kaohsiung Medical University, priority 2009, dated 2013):

Assays:
TGF-β = assay: Bleomycin-induced lung fibrosis in mice, TGF-β expression by EIA; format: in vivo; conditions: bleomycin 60 mg/kg
Description: 6. KMUP-1 salts inhibit the lung fibrosis in mice induced by bleomycin (BM) mediated via transforming growth factor beta (TGF-β) expression in lung The increased amount of the synthetic collagen and the generation of the macrophage in alveolus may facilitate the formulation of TGF-β, and the expression of TGF-β is looked as a biomarker of the lung fibrosis. […] The state of the TGF-β expression in the irrigation solution is measured by the enzyme immunoassay (EIA).

RAW 264.7 cells = assay: Inhibition of RANKL-induced osteoclast differentiation (TRAP staining); format: cell-based; conditions: 5 μM, 5 days; for TRAP-Positive Cells: RANKL 10 μg/ml, n=5
C57BL/6J mice [1] = assay: The lipid-lowering effect in C57BL/6J mice (high-fat diet); format: in vivo; conditions: HFD, after 21 days
Description: (§1) 8-week C57BL/6J mice are divided into standard diet (STD) group and the high-fat diet (HFD) group. In the HFD group, the KMUP-1 HCl salt (1, 2.5 and 5 mg/kg), the simvastatin (5 mg/kg), the KMUP-1-Nicotinic acid complex (1 and 5 mg/kg), the KMUP-1-Simvastatinic acid complex (1 and 5 mg/kg), KMUP-1-Gemfibrozil complex (2.5 mg/kg), KMUP-1-Fibric acid complex (2.5 mg/kg), KMUP-1-γ-polyglutamic acid complex (2.5 mg/kg) and KMUP-1-Citric acid complex (2.5 mg/kg) are administered orally. After 21 days, the amounts (mg/dl) of the triglyceride (TG), the total cholesterol (tot.-C), the high density lipoprotein cholesterol (HDL-C), the low density lipoprotein cholesterol (LDL-C) and the serum glucose of six mice for each group are measured as shown in Tables 2 and 3.

[2] = test system: STZ-induced diabetic rats; assay: Change of insulin and fasting blood glucose after administration, STZ-induced diabetic rats; format: in vivo; conditions: 4 mg/kg
Description: Nateglinide, repaglinide or the placebo is administered on day 1 before one hour of the breakfast, and the KMUP-1/KMUP-1-Nateglinide or KMUP-1-Repaglinide are orally administered at 1, 2, 3, 4, 5 and 6 hrs respectively. The amount of the serum glucose (mg/dl), the amount of the serum insulin (mg/dl), the body weight (g) and the change of the body weight are measured.

H1N1 virus = format: cell-based; conditions: MDCK culture infected with H1N1 virus; for IC50: n=6
[3] = test system: testosterone-induced mice; assay: Prostate hypertrophy (BPH) in testosterone-induced mice; format: in vivo; conditions: 2.5 mg/kg, testosterone 3 mg/kg/day for 4 weeks, day 28, n=6
Description: The testosterone (TS, 3 mg/kg/day) is administered for 4 weeks for inducing BPH in mice, which combines with KMUP-1 HCl salt (2.5 mg/kg), KMUP-1-Citric acid (2.5 mg/kg) and KMUP-1-Nicotinic acid (2.5 mg/kg), and the ratio of hypertrophy (g)/body weight (g) is measured at day 28 (n=6).

[4] = test system: monocrotaline (MCT)-treated rats; assay: Pulmonary artery blood pressure in monocrotaline (MCT)-treated rats; format: in vivo, male Wistar rats
Description: 5. the monocrotaline (MCT)-treated rats show the […] pulmonary aterial hypertension
Pulmonary aterial hypertension in MCT-treated rats is caused on day 21 after the intraperitoneal injection. Orally administered KMUP-1 HCl salt (2.5 mg/kg), simvastatin (2.5 mg/kg), KMUP-1-nicotinic acid complex (2.5 mg/kg), KMUP-1-Citric acid complex (2.5 mg/kg), KMUP-1-Simvastatinic acid complex (2.5 mg/kg) and KMUP-1-γ-Polyglutamic acid complex (2.5 mg/kg), or the inhalated KMUP-1-PGI2 (0.1 mM) every day may inhibit the male Wistar rats treated with MCT, which show the effect of decreasing the pulmonary artery blood pressure (PABP).

C57BL/6J mice [5] = assay: The amount of the serum glucose and insulin in C57BL/6J mice (high-fat diet); format: in vivo; parameters: The amount of serum insulin: unit not given here; conditions: 1 mg/kg orally, HFD, after 21 days
Description: as §1

[6] = test system: STZ-induced diabetic rats; assay: Serum glucose and body weight in streptozosin (STZ)-induced diabetic rats; format: in vivo; conditions: 5 mg/kg orally, after 21 days
Description: 2. The effect of KMUP-1 on decreasing the amount of the serum glucose in streptozosin (STZ)-induced diabetic rats
60 mg/kg of streptozosin is injected intravenously for inducing the STZ-induced rats, and the KMUP-1 HCl salt (0.5, 1.5, 2.5 and 5 mg/kg) and KMUP-1-Simvastatinic acid (5 mg/kg) are administered orally. After 21 days, the amount of the serum glucose (mg/dl), the amount of the serum insulin (mg/dl), the body weight (g) and the change of the body weight are measured.

[7] = test system: U46619-induced platelet aggregation; assay: Antiplatelet aggregation activity (U46619-induced, turbidity, Lumi-aggregometer); format: cell-based; conditions: 20 μM, rabbit platelets, n=8
Description: 4. […] After centrifuging at […] for 10 mins, the supernatant is platelet-rich plasma (PRP). The platelet suspension is obtained from EDTA-anticoagulated PRP, and the platelet granules are finally suspended in the Tyrode's solution. […] The turbidity is measured at 37° C. by Lumi-aggregometer connected with two dual channel recorders as the aggregation.

## CCC(C)(C)C(=O)O[C@H]1C[C@@H](C)C=C2C=C[C@H](C)[C@H](CC[C@@H]3C[C@@H](O)CC(=O)O3)[C@H]21 [Simvastatin, simvastatin, reference compound]
TGF-β; 5 mg/kg orally
  Changing % of the lung TGF-β: 40 ± 4.3 %
RAW 264.7 cells
  TRAP-Positive Cells: 85 ± 7
C57BL/6J mice [1]; 5 mg/kg orally
  HDL-C: 103.18 ± 2.5 mg/dL
  LDL-C: 15.3 ± 1.3 mg/dL
  TG: 82.67 ± 6.3 mg/dL
  tot.-C: 133.67 ± 4.3 mg/dL

## CCOc1cc(CC(=O)N[C@@H](CC(C)C)c2ccccc2N2CCCCC2)ccc1C(=O)O [Rep, Repaglinide, reference compound]
[2]; 1 hr
  The change of the fasting blood glucose after administration: 3.2 ± 0.8 mg/dL
  The change of the insulin after administration: 47.5 ± 3.7 U/mL
[2]; 2 hr
  The change of the fasting blood glucose after administration: 0.6 ± 0.1 mg/dL
  The change of the insulin after administration: 49.3 ± 3.4 U/mL
[2]; 3 hr
  The change of the insulin after administration: 24.4 ± 4.6 U/mL
[2]; 4 hr
  The change of the insulin after administration: 19.8 ± 3.6 U/mL
[2]; 6 hr
  The change of the fasting blood glucose after administration: -0.1 ± 0.4 mg/dL
  The change of the insulin after administration: 4.8 ± 0.4 U/mL

## Cn1c(=O)c2c(ncn2CCN2CCN(c3ccccc3Cl)CC2)n(C)c1=O [KMUP-1, 7-[2-[4-(2-chlorobenzene)piperazinyl]ethyl]-1,3-dimethylxanthine]
RAW 264.7 cells
  TRAP-positive cell count caused by RANKL (in words): suppressed the TRAP-positive cell count

## CC(C)c1c(C(=O)Nc2ccccc2)c(-c2ccccc2)c(-c2ccc(F)cc2)n1CC[C@@H](O)C[C@@H](O)CC(=O)O.Cn1c(=O)c2c(ncn2CCN2CCN(c3ccccc3Cl)CC2)n(C)c1=O [KMUP-1-Atorvastatinic acid, KMUP-1-Atorvastatinic acid complex]
RAW 264.7 cells
  TRAP-Positive Cells: 78 ± 3

## CC(C)[C@H]1CC[C@H](C(=O)N[C@H](Cc2ccccc2)C(=O)O)CC1 [Nat, Nateglinide, reference compound]
[2]; 1 hr
  The change of the fasting blood glucose after administration: 4.7 ± 0.6 mg/dL
  The change of the insulin after administration: 42.5 ± 4.2 U/mL
[2]; 2 hr
  The change of the fasting blood glucose after administration: 0.3 ± 0.2 mg/dL
  The change of the insulin after administration: 49.3 ± 3.4 U/mL
[2]; 3 hr
  The change of the insulin after administration: 24.4 ± 4.6 U/mL
[2]; 4 hr
  The change of the insulin after administration: 17.8 ± 2.8 U/mL
[2]; 6 hr
  The change of the fasting blood glucose after administration: -0.2 ± 0.3 mg/dL
  The change of the insulin after administration: 4.4 ± 0.6 U/mL

## CC[C@H](C)C(=O)O[C@H]1C[C@@H](C)C=C2C=C[C@H](C)[C@H](CC[C@@H](O)C[C@@H](O)CC(=O)O)[C@H]21.Cn1c(=O)c2c(ncn2CCN2CCN(c3ccccc3Cl)CC2)n(C)c1=O [KMUP-1-Lovastatinic acid, KMUP-1-Lovastatinic acid complex]
H1N1 virus
  IC50: 1.9 mg/L
RAW 264.7 cells
  TRAP-Positive Cells: 73 ± 6

## CC[C@H](C)C(=O)O[C@H]1C[C@H](O)C=C2C=C[C@H](C)[C@H](CC[C@@H](O)C[C@@H](O)CC(=O)O)[C@H]21.Cn1c(=O)c2c(ncn2CCN2CCN(c3ccccc3Cl)CC2)n(C)c1=O [KMUP-1-Pravastatinic acid, KMUP-1-Pravastatinic acid complex]
H1N1 virus
  IC50: 2.1 mg/L

## CC(C)(Oc1ccc(C(=O)c2ccc(Cl)cc2)cc1)C(=O)O.Cn1c(=O)c2c(ncn2CCN2CCN(c3ccccc3Cl)CC2)n(C)c1=O [KMUP-1-Fibric acid, KMUP-1-fibric acid complex]
C57BL/6J mice [1]; 2.5 mg/kg orally
  HDL-C: 98.4 ± 1.3 mg/dL
  LDL-C: 18.4 ± 2.2 mg/dL
  TG: 80.2 ± 3.2 mg/dL
  tot.-C: 132.7 ± 1.3 mg/dL

## Cc1ccc(C)c(OCCCC(C)(C)C(=O)O)c1.Cn1c(=O)c2c(ncn2CCN2CCN(c3ccccc3Cl)CC2)n(C)c1=O [KMUP-1-Gemfibrozil, KMUP-1-gemfibrozil complex]
C57BL/6J mice [1]; 2.5 mg/kg orally
  HDL-C: 98.7 ± 1.8 mg/dL
  LDL-C: 18.2 ± 1.8 mg/dL
  TG: 79.2 ± 4.6 mg/dL
  tot.-C: 130.7 ± 1.7 mg/dL

## CC(C)[C@H]1CC[C@H](C(=O)N[C@H](Cc2ccccc2)C(=O)O)CC1.Cn1c(=O)c2c(ncn2CCN2CCN(c3ccccc3Cl)CC2)n(C)c1=O [KMUP-1-Nat, KMUP-1-Nateglinide Complex]
[2]; 1 hr
  The change of the fasting blood glucose after administration: 4.67 ± 0.7 mg/dL
  The change of the insulin after administration: 38 ± 2.7 U/mL
[2]; 2 hr
  The change of the fasting blood glucose after administration: 0.8 ± 0.4 mg/dL
  The change of the insulin after administration: 51.3 ± 4.3 U/mL
[2]; 3 hr
  The change of the insulin after administration: 31.8 ± 3.7 U/mL
[2]; 4 hr
  The change of the insulin after administration: 21.8 ± 5.3 U/mL
[2]; 6 hr
  The change of the fasting blood glucose after administration: -0.2 ± 0.3 mg/dL
  The change of the insulin after administration: 3.4 ± 0.6 U/mL

## Cn1c(=O)c2c(ncn2CCN2CCN(c3ccccc3Cl)CC2)n(C)c1=O.O=C(O)c1cccnc1 [KMUP-1-Nicotinic acid, KMUP-1-Nicotinic acid salt]
TGF-β; 2.5 mg/kg orally
  Changing % of the lung TGF-β: 42 ± 3.8 %
C57BL/6J mice [1]; 5 mg/kg orally
  HDL-C: 97.98 ± 3.4 mg/dL
  LDL-C: 13.8 ± 1.2 mg/dL
  TG: 80.75 ± 7.9 mg/dL
  tot.-C: 130 ± 4.1 mg/dL
[3]
  hypertrophy (g)/body weight (g): 0.19 ± 0.07
[4]; 2.5 mg/kg/day p.o.
  PABP: 12 ± 2.6 mmHg
C57BL/6J mice [5]
  The amount of serum glucose: 123.5 ± 2.5 mg/dL

## CCC(C)(C)C(=O)O[C@H]1C[C@@H](C)C=C2C=C[C@H](C)[C@H](CC[C@@H](O)C[C@@H](O)CC(=O)O)[C@H]21.Cn1c(=O)c2c(ncn2CCN2CCN(c3ccccc3Cl)CC2)n(C)c1=O [KMUP-1-Simvastatinic acid, KMUP-1-Simvastatinic acid complex]
H1N1 virus; in glucose solution
  growth of the virus (in words): can inhibit the growth of the virus
H1N1 virus
  IC50: 1.8 mg/L
TGF-β; 2.5 mg/kg orally
  Changing % of the lung TGF-β: 45 ± 4.5 %
RAW 264.7 cells
  TRAP-Positive Cells: 72 ± 5
C57BL/6J mice [1]; 5 mg/kg orally
  HDL-C: 108.4 ± 1.3 mg/dL
  LDL-C: 17.3 ± 1.4 mg/dL
  TG: 81.2 ± 4.4 mg/dL
  tot.-C: 129.7 ± 1.4 mg/dL
[4]; 2.5 mg/kg/day p.o.
  PABP: 12 ± 1.3 mmHg
C57BL/6J mice [5]
  The amount of serum glucose: 117.3 ± 3.8 mg/dL
  The amount of serum insulin: 0.85 ± 0.17
[6]
  The amount of the serum glucose: 194.2 ± 16.1 mg/dL

## KMUP-1-γ-polyglutamate complex [KMUP-1-γ-polyglutamic acid]
TGF-β; 2.5 mg/kg orally
  Changing % of the lung TGF-β: 42 ± 1.6 %
C57BL/6J mice [1]; 2.5 mg/kg orally
  HDL-C: 97.3 ± 1.6 mg/dL
  LDL-C: 16.5 ± 0.9 mg/dL
  TG: 78.2 ± 3.6 mg/dL
  tot.-C: 129.4 ± 1.4 mg/dL
[4]; 2.5 mg/kg/day p.o.
  PABP: 11 ± 0.6 mmHg

## KMUP-1-Repaglinide Complex
[2]; 1 hr
  The change of the fasting blood glucose after administration: 5.7 ± 0.8 mg/dL
  The change of the insulin after administration: 39.5 ± 3.8 U/mL
[2]; 2 hr
  The change of the fasting blood glucose after administration: 0.5 ± 0.2 mg/dL
  The change of the insulin after administration: 47.3 ± 2.2 U/mL
[2]; 3 hr
  The change of the insulin after administration: 27.4 ± 2.8 U/mL
[2]; 4 hr
  The change of the insulin after administration: 14.8 ± 3.7 U/mL
[2]; 6 hr
  The change of the fasting blood glucose after administration: -0.3 ± 0.1 mg/dL
  The change of the insulin after administration: 2.8 ± 0.5 U/mL

## COc1ccc2c(c1)c(CC(=O)O)c(C)n2C(=O)c1ccc(Cl)cc1.Cn1c(=O)c2c(ncn2CCN2CCN(c3ccccc3Cl)CC2)n(C)c1=O [KMUP-1-Indomethacin, KMUP-1-Indomethacin complex]
[7]
  The ratio of the antiplatelet aggregation: 92 ± 5.8 %

## COc1ccc2c(c1)c(CC(=O)O)c(C)n2C(=O)c1ccc(Cl)cc1 [Indomethacin, indomethacin, reference compound]
[7]
  The ratio of the antiplatelet aggregation: 87 ± 8.3 %

## KMUP-1-PGI2 complex
[4]; 0.1 mM (inhalation)
  PABP: 10 ± 0.2 mmHg
